For orientation: EC50 means the concentration giving half of the maximal effect. Broadly, the IC50 is the point on the concentration scale where inhibition reaches its midpoint.

The source of these data is ChEMBL document CHEMBL1201862, “PubChem BioAssay data set” (2004).

The nature of experiment [1]: growth suppression of PTEN-null colon cells, dose response, cell-based, HCT116 PTEN knockout (AID 1047).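 Further: HCT116 colon tumor cells with PTEN knocked out; cells exposed to compound for 60 hours before readout; potency for loss of cell viability measured by luminescence.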 The format is functional.
The nature of experiment [2]: cytotoxicity toward NIH3T3 fibroblasts, dose response, counter-screen, cell-based, ATP luminescence, mouse fibroblasts (AID 2010).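 Further: cells exposed to compound for about 90 hours before reading.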 The experiment is classed as functional. (Counterscreens check selectivity or assay interference.)
Experiment [3] is described as follows: microbe, parasite or virus in culture. The format is functional. Conditions: Mycobacterium tuberculosis.
A short description of experiment [4]: cytotoxicity in HPDE-C7 cells, cell-based, fluorescence, HTS (AID 430). The format is functional. Conditions: Homo sapiens.
The nature of experiment [5]: growth suppression of beta-catenin-knockout colon cells, dose response, cell-based, HCT116, human colon tumor (AID 1045).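 Further: HCT116 colon tumor cells with beta catenin knocked out; cells exposed to compound for 60 hours.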 The format is functional.
The nature of experiment [6]: cytotoxicity in HEK-293T cells, dose response, cytotoxicity control for BCR NF-kB inhibitor project, luminescence, B-cell screen hits (AID 489021).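 Further: HEK-293T cells carrying an NF-kB luciferase reporter; cells exposed to compound for about 14 hours before viability readout.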 The experiment is classed as functional, cell-based.
The nature of experiment [7]: cytotoxicity in KRAS-transformed pancreatic duct cells, primary screen, cell-based, fluorescence, HTS (AID 431).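 Further: cell line used: HPDE-C7K.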 The format is functional. As to conditions: Homo sapiens.
The nature of experiment [8]: inhibitors of intracellular T. cruzi replication, confirmation, NIH3T3 host cells, beta-gal luminescence (AID 2044).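 Further: intracellular parasites grown in NIH/3T3 mouse fibroblasts as host cells; luminescent beta-galactosidase reporter signal from transgenic T. cruzi replicating inside host cells; inhibitors lower the luminescence signal.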 The experiment is classed as functional, cell-based.
The target in experiment [9] is Sphingosine 1-phosphate receptor 3 (Homo sapiens, UniProt Q99500). The experiment in a line: Dose Response Cell-Based Assay for Agonists of the Sphingosine 1-Phosphate Receptor 3 (S1P3): Purchased Analogues. [Related pubchem assays: 373, 439 ]. The format is functional.
Experiment [10] concerns the target Sphingosine 1-phosphate receptor 1 (Homo sapiens, UniProt P21453). Put plainly: Dose Response Cell-Based Assay for Agonists of the Sphingosine 1-Phosphate Receptor 1 (S1P1): Purchased Analogues. [Related pubchem assays: 1192, 373, 439 ]. The experiment is classed as functional.
Experiment [11] has as its target Sphingosine 1-phosphate receptor 2 (Homo sapiens, UniProt O95136). Put plainly: Dose Response Cell-Based Assay for Agonists of the Sphingosine 1-Phosphate Receptor 2 (S1P2): Purchased Analogues. [Related pubchem assays: 1192, 373, 439 ]. The experiment is classed as functional.
The target of experiment [12] is T1, Estrogen receptor beta (Homo sapiens, UniProt Q92731). The experiment in a line: ERβ–SRC-3 coactivator interaction inhibitors, confirmation, orthogonal assay, biochemical, ELISA, streptavidin-HRP readout (AID 1060). A general note: An ELISA detects its analyte on a solid surface through an enzyme-linked reagent.
The target of experiment [13] is T1, Estrogen receptor beta.
For experiment [14], the target named is T2, Estrogen receptor (Homo sapiens, UniProt P03372).
T2 sequence (P03372 whole entry): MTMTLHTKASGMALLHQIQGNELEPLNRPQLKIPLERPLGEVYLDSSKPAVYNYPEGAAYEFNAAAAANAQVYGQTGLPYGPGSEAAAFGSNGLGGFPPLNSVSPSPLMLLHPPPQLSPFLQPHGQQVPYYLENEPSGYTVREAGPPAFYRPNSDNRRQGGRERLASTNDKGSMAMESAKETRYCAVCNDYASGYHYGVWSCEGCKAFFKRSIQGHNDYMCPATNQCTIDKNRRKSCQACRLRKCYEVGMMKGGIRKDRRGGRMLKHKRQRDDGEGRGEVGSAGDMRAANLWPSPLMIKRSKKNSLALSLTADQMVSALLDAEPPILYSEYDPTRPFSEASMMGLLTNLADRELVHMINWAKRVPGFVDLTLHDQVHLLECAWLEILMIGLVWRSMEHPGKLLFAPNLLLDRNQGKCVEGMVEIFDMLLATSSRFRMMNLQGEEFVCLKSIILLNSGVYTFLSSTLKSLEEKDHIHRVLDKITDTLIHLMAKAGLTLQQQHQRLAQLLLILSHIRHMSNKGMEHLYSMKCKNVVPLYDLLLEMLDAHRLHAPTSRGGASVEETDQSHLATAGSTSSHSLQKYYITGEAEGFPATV

Experiment [15] is described as follows: A High Throughput Confirmatory Assay used to Identify Novel Compounds that Inhibit Mycobacterium Tuberculosis in the absence of Glycerol. The experiment is classed as functional.
The target in experiment [16] is T3, Insulin-degrading enzyme (Homo sapiens, UniProt P14735).
T3 sequence (P14735 whole entry): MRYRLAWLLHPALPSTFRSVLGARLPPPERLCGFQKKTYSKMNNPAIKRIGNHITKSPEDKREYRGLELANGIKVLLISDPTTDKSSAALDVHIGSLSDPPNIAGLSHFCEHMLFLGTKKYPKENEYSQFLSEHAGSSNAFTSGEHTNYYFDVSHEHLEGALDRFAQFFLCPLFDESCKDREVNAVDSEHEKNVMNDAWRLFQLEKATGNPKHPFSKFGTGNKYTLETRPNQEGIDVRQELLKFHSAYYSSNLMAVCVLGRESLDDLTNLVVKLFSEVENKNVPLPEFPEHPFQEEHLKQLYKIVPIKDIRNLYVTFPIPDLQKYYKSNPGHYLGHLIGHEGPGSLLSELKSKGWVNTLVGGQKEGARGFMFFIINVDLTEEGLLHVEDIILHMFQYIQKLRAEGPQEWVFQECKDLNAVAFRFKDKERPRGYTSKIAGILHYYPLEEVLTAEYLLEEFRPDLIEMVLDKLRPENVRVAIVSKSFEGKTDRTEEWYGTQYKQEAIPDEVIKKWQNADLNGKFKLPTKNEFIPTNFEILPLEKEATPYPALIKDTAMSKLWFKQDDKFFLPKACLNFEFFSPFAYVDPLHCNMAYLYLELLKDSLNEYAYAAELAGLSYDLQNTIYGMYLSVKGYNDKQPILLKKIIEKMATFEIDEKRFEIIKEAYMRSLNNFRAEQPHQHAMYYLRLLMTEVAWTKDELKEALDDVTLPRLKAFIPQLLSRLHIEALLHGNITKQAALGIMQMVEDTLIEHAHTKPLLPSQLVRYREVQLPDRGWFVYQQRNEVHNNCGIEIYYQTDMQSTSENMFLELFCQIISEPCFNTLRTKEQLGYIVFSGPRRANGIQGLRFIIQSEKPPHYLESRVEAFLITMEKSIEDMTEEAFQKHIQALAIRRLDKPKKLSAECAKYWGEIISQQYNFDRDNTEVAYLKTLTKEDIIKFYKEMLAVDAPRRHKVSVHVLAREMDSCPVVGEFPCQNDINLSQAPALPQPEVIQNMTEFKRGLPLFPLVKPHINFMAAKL
Put plainly: Dose Response: Fluorescence polarization-based cell-based high throughput dose response assay for inhibitors of insulin-degrading enzyme (IDE). [Related pubchem assays: 434962 (Primary screen (IDE inhibitors in singlicate)), 449730 (Counterscreen (Cytotoxicity in triplicate)), 435028 (Confirmation (IDE inhibitors in triplicate)), 434984 (Summary …. The format is functional. A general note: In fluorescence polarisation assays a small probe gives low polarisation when free and higher when bound to something large.

A short description of experiment [17]: enhancers of respiration in Yfh1-depleted yeast, dose response, Friedreich's ataxia, plus single-dose screen (AID 1465).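 Further: yeast depleted of Yfh1p frataxin homolog grown on glycerol needing respiration; WST-1 tetrazolium dye reduction as measure of cellular dehydrogenase metabolic activity.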 The format is functional.
A short description of experiment [18]: Counterscreen for IDE inhibitors: Luminescence-based cell-based high throughput dose response assay to identify compounds that are cytotoxic to HEK cells. [Related pubchem assays: 434962 (Primary screen (IDE inhibitors in singlicate)), 449730 (Counterscreen (Cytotoxicity in triplicate)), 435028 (Confirmation (IDE inhibitors in triplicate)) …. Conditions: HEK293. The format is functional.

In experiment [19] the target is T4, Rac GTPase-activating protein 1 (Homo sapiens, UniProt Q9H0H5).
T4 sequence (Q9H0H5 whole entry): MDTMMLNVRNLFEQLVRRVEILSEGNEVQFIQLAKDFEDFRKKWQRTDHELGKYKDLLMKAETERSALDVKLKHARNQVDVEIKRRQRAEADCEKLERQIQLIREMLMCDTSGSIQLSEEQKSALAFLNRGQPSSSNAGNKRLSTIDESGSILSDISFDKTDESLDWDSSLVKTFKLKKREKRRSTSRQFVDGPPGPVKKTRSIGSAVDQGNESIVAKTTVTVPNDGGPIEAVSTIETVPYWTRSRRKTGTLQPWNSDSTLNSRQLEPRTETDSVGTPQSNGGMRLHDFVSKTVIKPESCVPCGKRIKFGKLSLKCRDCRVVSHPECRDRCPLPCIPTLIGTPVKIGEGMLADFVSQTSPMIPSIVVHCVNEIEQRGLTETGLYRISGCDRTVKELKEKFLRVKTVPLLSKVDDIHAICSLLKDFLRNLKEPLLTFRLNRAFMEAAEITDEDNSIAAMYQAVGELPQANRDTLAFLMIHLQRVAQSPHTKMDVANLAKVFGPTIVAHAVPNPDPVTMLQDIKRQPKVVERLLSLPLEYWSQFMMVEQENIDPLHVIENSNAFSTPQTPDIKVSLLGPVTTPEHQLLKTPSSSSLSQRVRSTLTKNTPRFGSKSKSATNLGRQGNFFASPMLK
Put plainly: MgcRacGAP GTPase-activating activity inhibitors, confirmation, biochemical, ADP Hunter fluorescence, primary and confirmatory (AID 624330). The experiment is classed as functional.

In experiment [20] the target is T5, Neuropeptide Y receptor type 2 (Homo sapiens, UniProt P49146).
T5 sequence (P49146 whole entry): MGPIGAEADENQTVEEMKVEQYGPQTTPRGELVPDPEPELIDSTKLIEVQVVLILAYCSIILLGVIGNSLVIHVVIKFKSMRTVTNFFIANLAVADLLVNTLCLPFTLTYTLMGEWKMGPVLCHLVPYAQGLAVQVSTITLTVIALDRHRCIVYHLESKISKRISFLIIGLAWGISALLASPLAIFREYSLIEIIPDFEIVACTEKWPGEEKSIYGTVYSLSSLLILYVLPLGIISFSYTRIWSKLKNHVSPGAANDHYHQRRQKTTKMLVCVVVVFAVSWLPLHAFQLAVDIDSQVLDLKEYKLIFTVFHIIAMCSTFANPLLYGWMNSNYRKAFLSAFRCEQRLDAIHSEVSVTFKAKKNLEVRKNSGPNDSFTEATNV
Put plainly: NPY-Y2 antagonist potency, selectivity check, dose response, counter-screen for NPY-Y1 antagonist project, cell-based (AID 1278). The experiment is classed as functional.

In experiment [21] the target is T6, Neuropeptide Y receptor type 1 (Homo sapiens, UniProt P25929).
T6 sequence (P25929 whole entry): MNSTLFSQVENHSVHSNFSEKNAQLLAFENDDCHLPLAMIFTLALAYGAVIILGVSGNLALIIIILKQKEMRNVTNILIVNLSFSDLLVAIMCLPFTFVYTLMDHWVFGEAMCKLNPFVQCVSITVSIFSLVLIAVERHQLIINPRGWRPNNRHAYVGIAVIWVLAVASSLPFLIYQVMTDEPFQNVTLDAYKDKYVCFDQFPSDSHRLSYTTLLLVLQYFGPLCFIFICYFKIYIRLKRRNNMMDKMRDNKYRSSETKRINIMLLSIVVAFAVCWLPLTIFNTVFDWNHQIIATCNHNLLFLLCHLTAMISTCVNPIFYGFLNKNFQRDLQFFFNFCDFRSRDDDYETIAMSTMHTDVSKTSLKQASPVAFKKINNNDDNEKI
Put plainly: NPY-Y1 receptor antagonist potency, dose response, cell-based (AID 1277). The experiment is classed as functional.

Calls of active or inactive are those of the source.

T1 sequence (Q92731 whole entry): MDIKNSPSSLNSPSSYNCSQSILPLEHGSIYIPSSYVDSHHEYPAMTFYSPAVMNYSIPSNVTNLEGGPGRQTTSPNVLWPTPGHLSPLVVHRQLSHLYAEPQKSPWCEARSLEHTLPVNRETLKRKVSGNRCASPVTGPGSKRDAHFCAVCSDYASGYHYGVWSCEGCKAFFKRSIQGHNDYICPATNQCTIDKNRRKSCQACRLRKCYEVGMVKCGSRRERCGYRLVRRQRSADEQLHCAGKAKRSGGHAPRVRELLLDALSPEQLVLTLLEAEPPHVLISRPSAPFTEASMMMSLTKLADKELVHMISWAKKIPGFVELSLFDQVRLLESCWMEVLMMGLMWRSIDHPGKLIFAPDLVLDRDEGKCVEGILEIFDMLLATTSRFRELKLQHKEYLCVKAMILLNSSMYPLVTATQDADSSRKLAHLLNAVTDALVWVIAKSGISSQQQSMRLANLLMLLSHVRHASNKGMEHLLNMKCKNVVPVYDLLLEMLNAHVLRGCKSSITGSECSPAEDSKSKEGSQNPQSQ
Sphingosine 1-phosphate receptor 3, sequence (Q99500 whole entry): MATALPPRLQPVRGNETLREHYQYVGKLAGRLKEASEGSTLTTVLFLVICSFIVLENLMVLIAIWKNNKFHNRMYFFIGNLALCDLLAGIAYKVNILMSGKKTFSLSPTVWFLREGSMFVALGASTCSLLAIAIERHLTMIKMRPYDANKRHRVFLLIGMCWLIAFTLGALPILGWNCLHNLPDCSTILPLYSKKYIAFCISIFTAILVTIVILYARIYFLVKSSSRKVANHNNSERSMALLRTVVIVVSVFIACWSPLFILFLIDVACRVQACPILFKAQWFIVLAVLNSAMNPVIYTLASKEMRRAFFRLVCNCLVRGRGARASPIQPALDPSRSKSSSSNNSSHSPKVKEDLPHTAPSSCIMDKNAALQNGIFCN
Sphingosine 1-phosphate receptor 2, sequence (O95136 whole entry): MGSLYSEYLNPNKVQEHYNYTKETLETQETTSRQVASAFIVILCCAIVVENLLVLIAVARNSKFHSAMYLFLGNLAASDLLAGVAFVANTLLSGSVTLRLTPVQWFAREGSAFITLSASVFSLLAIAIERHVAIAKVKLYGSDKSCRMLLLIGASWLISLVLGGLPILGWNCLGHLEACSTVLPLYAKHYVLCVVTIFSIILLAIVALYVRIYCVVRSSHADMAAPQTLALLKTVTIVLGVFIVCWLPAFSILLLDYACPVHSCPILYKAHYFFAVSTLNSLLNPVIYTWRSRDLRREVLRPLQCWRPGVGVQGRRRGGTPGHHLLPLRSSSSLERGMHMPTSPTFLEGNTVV
Sphingosine 1-phosphate receptor 1, sequence (P21453 whole entry): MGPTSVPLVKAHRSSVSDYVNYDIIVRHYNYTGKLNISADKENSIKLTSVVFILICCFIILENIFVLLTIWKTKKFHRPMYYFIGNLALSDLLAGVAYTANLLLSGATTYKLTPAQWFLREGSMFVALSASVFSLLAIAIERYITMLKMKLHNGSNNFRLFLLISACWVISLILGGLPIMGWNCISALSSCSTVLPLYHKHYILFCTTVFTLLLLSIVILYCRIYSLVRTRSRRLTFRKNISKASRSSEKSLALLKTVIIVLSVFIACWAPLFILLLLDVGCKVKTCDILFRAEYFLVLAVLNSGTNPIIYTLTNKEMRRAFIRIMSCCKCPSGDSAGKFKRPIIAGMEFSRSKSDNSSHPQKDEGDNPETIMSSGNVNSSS

Turning to `CCC(C)NC(=O)c1c(N)n(/N=C/c2ccccn2)c2nc3ccccc3nc12` (stereo unspecified), the EC50 in experiment [1] was 32.3 µM (active); in [2] it was > 30 µM (not active); in [4] it was 4.73 µM (active); in [5] it was 30.2 µM (active); in experiment [7], 6.39 µM (active); in experiment [8], 2.18 µM (active). Besides, the CC50 in [3] is > 40 µM (active). Besides, in [6], the IC50 is 43.2 µM (inactive).
For the molecule `NC(=O)C1CCN(C(=O)c2cc(-c3ccccc3)on2)CC1`, the EC50 in experiment [9] is recorded as > 50 µM (not active); in experiment [10], > 50 µM (not active); in experiment [11], > 10 µM (not active).
For `Cc1cc(C)c(S(=O)(=O)/N=C2\C=CC(=O)C(Cl)=C2)c(C)c1`, the IC50 in experiment [12] was 16.5 µM (not active); in experiment [13], 4.69 µM (active); in experiment [14] it was 10.3 µM (active).
As to `O=C(CCN1C(=O)/C(=C/c2ccccc2)SC1=S)Nc1ccccn1`, in experiment [15], the IC50 was > 100 µM (active).
As for `O=C1NC(=O)N(c2ccc3c(c2)OCO3)C(=O)/C1=C\c1ccc(N2CCCCC2)o1`, the IC50 is given as 21 µM (not active) in experiment [16] and > 55.7 µM (not active) in experiment [18]. For the same molecule, the EC50 in experiment [17] was > 100 µM (active).
Take `COc1ccc(Oc2c(C)n[nH]c2-c2ccc(O)cc2O)cc1`: the values for the IC50 in experiment [19], in [20] and in experiment [21] were 47.4 µM (active), > 35 µM (not active) and > 35 µM (not active), respectively.
